10 compounds from article PMC8746328, “Three New Isoprenylated Flavones from Artocarpus chama Stem and Their Bioactivities” (Molecules, 2021) can be followed below.

Converted amounts (≈) assume the structure as drawn. Read-outs that look alike come from different tables or passages of the source.

One may read the MBC as the smallest concentration meeting the test's criterion for killing. Broadly, the MIC is the smallest concentration in the dilution series that meets the test's criterion for growth inhibition.

Assay [1] concerns the target tyrosinase enzyme. As to the kind of experiment: Enzymatic antityrosinase activity, dopachrome method (L-Dopa substrate). It counts as biochemical. The following applies: pH 6.8, 25 °C. The method, then:
Antityrosinase activity was determined by the dopachrome method. L-dopa was used as the substrate. Oxidation of L-Dopa to dopachrome which, represented by red color, could be detected by visible light at 492 nm. Briefly, 140 µL of phosphate buffer pH 6.8, 20 µL of sample solution (200 µg/mL), and 2 µL of tyrosinase enzyme solution (203.3 unit/mL) were mixed in a 96-well plate at 25 °C for 10 min. Then, 20 µL of L-Dopa (0.85 mM) was added, and optical density (OD) was detected. After incubation at 25 °C for 20 min, OD was detected again. Dimethyl sulfoxide (DMSO) was used as a negative control. […] The percent inhibition of tyrosinase reaction was calculated by the following equation:Tyrosinase inhibition (%) = [1 − (OD492 of sample/OD492 of control)] × 100.

The test system of assay [2] is Staphylococcus epidermidis (TISTR 517). Nature of the assay: Antimicrobial activity, broth microdilution. It counts as cell-based. The following applies: TISTR517, S. epidermidis. The method, then:
(§1) Microorganisms that cause skin infection, such as Staphylococcus aureus (ATTC 25923), Staphylococcus epidermidis (TISTR 517), Cutibacterium acnes (DMST 14916), and methicillin-resistant Staphylococcus aureus (DMST20654),t were selected for this study. The isolated compounds were determined for minimum inhibitory concentration (MIC) and minimum bactericidal concentration (MBC) by a modified broth microdilution method. Briefly, 20 µL of the test samples (dilution series ranging from 2560 to 1.25 µg/mL) was added in wells 1 to 12. Then, 80 µL of media was added into each well. Next, 100 µL of the inoculum (concentration 10^6 CFU/mL) was added in each well. The final concentration of inoculum in each well was 5 × 10^5 CFU/mL. Then, the cultures were incubated follow the conditions. Incubation mixtures showing positive results of inhibitory effect (MIC) were streaked on media agar, and then incubated by following the conditions.
(In general: In broth dilution the organism is exposed to a series of concentrations in liquid medium.)

The subject of assay [3] is Cutibacterium acnes (DMST 14916). As to the kind of experiment: Antimicrobial activity, broth microdilution. The format is cell-based. The following applies: C. acnes. The protocol:
as §1

The subject of assay [4] is Staphylococcus aureus (ATTC 25923). Nature of the assay: Antimicrobial activity, broth microdilution. It counts as cell-based. The following applies: S. aureus. The method, then: as §1
For assay [5], the system named is methicillin-resistant Staphylococcus aureus (DMST20654). Nature of the assay: Antimicrobial activity, broth microdilution. The format is cell-based. The following applies: MRSA. The method, then: as §1
The subject of assay [6] is B16F1 melanoma cells. As to the kind of experiment: Melanin content. It counts as cell-based, murine. The following applies: 50 µg/mL, 48 h. The protocol:
(§2) Murine melanoma B16-F1 cells (CLS-400122) were cultured in DMEM or Dulbecco’s modified Eagle medium containing 10% FBS heat-inactivated fetal bovine serum at 37 °C in a humidified atmosphere with 5% CO2. When cells reached 70–80% confluence cell viability, cellular tyrosinase activity and melanin content were measured. First, 3 × 10^5 cells/well were seeded in 12-well plates and allowed to adhere at 37 °C for 12 h. Cells were treated with test samples; control cells were treated with 0.5% DMSO. After 48 h incubation, cells were lysed with RIPA and centrifuged at 14,000 rpm for 20 min (4 °C) in order to separate the supernatant for measurement of tyrosinase activity, and the cell pellet was measured for melanin content. Cell pellets were dissolved with 1M NaOH and incubated at 55 °C for 1 h. Melanin content was calculated by comparison with the standard curve of synthetic melanin at 475 nm.

For assay [7], the system named is B16F1 melanoma cells. As to the kind of experiment: Intracellular antityrosinase activity. It counts as cell-based, murine. The following applies: 50 µg/mL, 48 h. The protocol:
as §2, with “The supernatant was collected for determination of protein content by the Bradford method, with bovine serum albumin (BSA) used as a standard. The supernatant of lysate cells and 2 mg/mL L-Dopa” for “Cell pellets”, “added to a 96-well plate” for “dissolved with 1M NaOH”, “25” for “55”, “After that, optical densities were determined at 492 nm. Tyrosinase inhibition” for “Melanin content”, “then calculated.” for “calculated by comparison with the standard curve of synthetic melanin at 475 nm.”

`CC(C)=CCCC(C)=CCCC(C)=CCc1cc(-c2cc(=O)c3c(O)cc(O)cc3o2)ccc1O` [Compound 1, 3′-Farnesylapigenin]: the “IC50 on tyrosinase inhibitory activity” value in assay [1] was 135.70 ± 1.16 µg/mL (≈ 286 µM). Besides, the MBC in assay [2], in assay [3], in assay [4] and in assay [5] (read-out: MBC) was > 256 µg/mL throughout. In addition, the MIC is 256 µg/mL (≈ 539 µM) in assay [2], > 256 µg/mL in assay [3], 256 µg/mL (≈ 539 µM) in assay [4] and > 256 µg/mL in assay [5] (read-out: MIC).

Turning to `CC(C)=CC(O)c1c(-c2cc(O)c(O)cc2O)oc2cc(O)cc(O)c2c1=O` (stereo not shown) [Compound 2, 3-(Hydroxyprenyl) isoetin], the “IC50 on tyrosinase inhibitory activity” value in assay [1] is reported as >200 µg/mL. Besides, the MBC was 32 µg/mL (≈ 82.8 µM) in assay [2], > 256 µg/mL in assay [3], 32 µg/mL (≈ 82.8 µM) in assay [4] and 64 µg/mL (≈ 166 µM) in assay [5] (read-out: MBC). For the same compound, the MIC in assay [2] is 16 µg/mL (≈ 41.4 µM); in assay [3], 128 µg/mL (≈ 331 µM); in assay [4], 16 µg/mL (≈ 41.4 µM); in assay [5] (read-out: MIC), 16 µg/mL (≈ 41.4 µM).

As to `COc1cc(O)c(-c2oc3cc(O)cc(O)c3c(=O)c2CC=C(C)C)cc1O` [Compound 3, 3-Prenyl-5,7,2′,5′-tetrahydroxy-4′-methoxyflavone], in assay [1], the “IC50 on tyrosinase inhibitory activity” value is listed as >200 µg/mL. In addition, the minimum bactericidal concentration (MBC) in assay [2] was 64 µg/mL (≈ 167 µM); in assay [3], > 256 µg/mL; in assay [4], 16 µg/mL (≈ 41.6 µM); in assay [5] (read-out: MBC) it was 32 µg/mL (≈ 83.3 µM). In addition, the minimum inhibitory concentration (MIC) is 16 µg/mL (≈ 41.6 µM) in assay [2], 128 µg/mL (≈ 333 µM) in assay [3], 4 µg/mL (≈ 10.4 µM) in assay [4] and 4 µg/mL (≈ 10.4 µM) in assay [5] (read-out: MIC).

For `COc1cc([C@@H]2CC(=O)c3c(O)cc(O)cc3O2)ccc1O` [Compound 4, Homoeriodictyol], the MBC in assay [2] is 256 µg/mL (≈ 847 µM); in assay [3], > 256 µg/mL; in assay [4], > 256 µg/mL; in assay [5] (read-out: MBC), > 256 µg/mL. Further, the MIC in assay [2] is 128 µg/mL (≈ 423 µM); in assay [3], > 256 µg/mL; in assay [4], 256 µg/mL (≈ 847 µM); in assay [5] (read-out: MIC), > 256 µg/mL.

Consider `CC1(C)C=Cc2c(cc3oc4c(c(=O)c3c2O)CC2c3c(c(O)cc(O)c3-4)OC2(C)C)O1` (stereo not shown) [Compound 5, Isocycloartobiloxanthone], for which the “IC50 on tyrosinase inhibitory activity” value in assay [1] is on record as >200 µg/mL. Moreover, the minimum bactericidal concentration (MBC) in assay [2] is 8 µg/mL (≈ 18.4 µM); in assay [3], > 256 µg/mL; in assay [4] it was 8 µg/mL (≈ 18.4 µM); in assay [5] (read-out: MBC), 64 µg/mL (≈ 147 µM). For the same compound, the MIC turned out to be 4 µg/mL (≈ 9.21 µM) in assay [2], 256 µg/mL (≈ 589 µM) in assay [3], 4 µg/mL (≈ 9.21 µM) in assay [4] and 16 µg/mL (≈ 36.8 µM) in assay [5] (read-out: MIC).

Take `COc1cc(O)c2c(c1)O[C@H](c1ccc(O)cc1O)CC2=O` [Compound 6, Artocarpanone]: the “IC50 on tyrosinase inhibitory activity” value in assay [1] turned out to be 38.78 ± 1.02 µg/mL (≈ 128 µM). Besides, in assay [6], the “Melanin content (result in words)” value is “could reduce the amount of melanin content”. Besides, the MBC in assay [2] was 128 µg/mL (≈ 423 µM); in assay [3] it was 64 µg/mL (≈ 212 µM); in assay [4], 256 µg/mL (≈ 847 µM); in assay [5] (read-out: MBC) it was > 256 µg/mL. For the same compound, the MIC was 64 µg/mL (≈ 212 µM) in assay [2], 32 µg/mL (≈ 106 µM) in assay [3], 64 µg/mL (≈ 212 µM) in assay [4] and 128 µg/mL (≈ 423 µM) in assay [5] (read-out: MIC). Besides, the “Intracellular antityrosinase activity (result in words)” value is given as “exhibited antityrosinase activity” in assay [7] and “exhibited intracellular antityrosinase activity” in assay [7] (listed as artocarpanone).

Consider `O=C1C[C@@H](c2ccc(O)cc2)Oc2cc(O)cc(O)c21` [Compound 7, Naringenin], for which the “IC50 on tyrosinase inhibitory activity” value in assay [1] is recorded as >200 µg/mL. For the same compound, the MBC in assay [2], in assay [3], in assay [4] and in assay [5] (read-out: MBC) was > 256 µg/mL throughout. For the same compound, the MIC is 256 µg/mL (≈ 940 µM) in assay [2], > 256 µg/mL in assay [3], > 256 µg/mL in assay [4] and > 256 µg/mL in assay [5] (read-out: MIC).

For the compound `COc1cc2oc(-c3ccc(O)cc3O)c(CC=C(C)C)c(=O)c2c(O)c1/C=C/C(C)C` [Compound 8, artocarpin], the “IC50 on tyrosinase inhibitory activity” value in assay [1] is listed as >200 µg/mL. In addition, the MBC in assay [2] amounted to 32 µg/mL (≈ 73.3 µM); in assay [3], 32 µg/mL (≈ 73.3 µM); in assay [4], 4 µg/mL (≈ 9.16 µM); in assay [5] (read-out: MBC) it was 2 µg/mL (≈ 4.58 µM). Further, the MIC in assay [2] turned out to be 2 µg/mL (≈ 4.58 µM); in assay [3], 8 µg/mL (≈ 18.3 µM); in assay [4], 2 µg/mL (≈ 4.58 µM); in assay [5] (read-out: MIC), 2 µg/mL (≈ 4.58 µM).

Consider `Cc1onc(-c2ccccc2)c1C(=O)N[C@@H]1C(=O)N2[C@@H]1SC(C)(C)[C@@H]2C(=O)O` [Oxa, Oxacillin, reference compound], for which the MBC was 0.5 µg/mL (≈ 1.25 µM) in assay [2], 0.5 µg/mL (≈ 1.25 µM) in assay [3] and 0.125 µg/mL (≈ 0.311 µM) in assay [4]. The MIC was 0.5 µg/mL (≈ 1.25 µM) in assay [2], 0.5 µg/mL (≈ 1.25 µM) in assay [3] and 0.125 µg/mL (≈ 0.311 µM) in assay [4].

Take `CN[C@H](CC(C)C)C(=O)N[C@H]1C(=O)N[C@@H](CC(N)=O)C(=O)N[C@H]2C(=O)N[C@H]3C(=O)N[C@H](C(=O)N[C@H](C(=O)O)c4cc(O)cc(O)c4-c4cc3ccc4O)[C@H](O)c3ccc(c(Cl)c3)Oc3cc2cc(c3O[C@@H]2O[C@H](CO)[C@@H](O)[C@H](O)[C@H]2O[C@H]2C[C@](C)(N)[C@H](O)[C@H](C)O2)Oc2ccc(cc2Cl)[C@H]1O` [Van, Vancomycin, reference compound]: in assay [5], the MBC came to 0.5 µg/mL (≈ 0.345 µM) and it took 0.125 µg/mL (≈ 0.0863 µM) to inhibit growth (MIC).
